Values joined by “and” are separate entries in the source; they are usually repeats but may differ in a detail not shown here. Equal values may be shown once.
Legend:
[1] = target: T1, human liver-X-receptor LXRβ (Homo sapiens, UniProt P55055); experiment: LXRE-luciferase gene reporter assay in HEK293T, LXRβ; type: cell-based; conditions: LXRβ; 10 µM 22(R)HC; read-out: IC50, inhibition of LXR-dependent luciferase activity stimulated by 22(R)HC
T1 construct: expressed in transfected cells; host or cells: HEK293T
T1 sequence (P55055 whole entry): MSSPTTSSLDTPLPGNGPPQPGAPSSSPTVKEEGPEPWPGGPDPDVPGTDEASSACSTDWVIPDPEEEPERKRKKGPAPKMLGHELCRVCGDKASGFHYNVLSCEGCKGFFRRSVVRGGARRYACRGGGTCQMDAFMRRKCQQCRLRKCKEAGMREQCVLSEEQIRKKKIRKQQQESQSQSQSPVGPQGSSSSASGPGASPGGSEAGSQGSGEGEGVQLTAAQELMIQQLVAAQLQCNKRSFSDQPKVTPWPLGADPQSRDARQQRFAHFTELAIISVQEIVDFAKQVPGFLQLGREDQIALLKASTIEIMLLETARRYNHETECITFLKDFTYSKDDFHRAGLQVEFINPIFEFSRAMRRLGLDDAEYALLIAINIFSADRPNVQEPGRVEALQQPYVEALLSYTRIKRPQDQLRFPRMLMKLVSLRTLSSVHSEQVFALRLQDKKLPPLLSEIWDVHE
T1 sequence (P48443 whole entry partner): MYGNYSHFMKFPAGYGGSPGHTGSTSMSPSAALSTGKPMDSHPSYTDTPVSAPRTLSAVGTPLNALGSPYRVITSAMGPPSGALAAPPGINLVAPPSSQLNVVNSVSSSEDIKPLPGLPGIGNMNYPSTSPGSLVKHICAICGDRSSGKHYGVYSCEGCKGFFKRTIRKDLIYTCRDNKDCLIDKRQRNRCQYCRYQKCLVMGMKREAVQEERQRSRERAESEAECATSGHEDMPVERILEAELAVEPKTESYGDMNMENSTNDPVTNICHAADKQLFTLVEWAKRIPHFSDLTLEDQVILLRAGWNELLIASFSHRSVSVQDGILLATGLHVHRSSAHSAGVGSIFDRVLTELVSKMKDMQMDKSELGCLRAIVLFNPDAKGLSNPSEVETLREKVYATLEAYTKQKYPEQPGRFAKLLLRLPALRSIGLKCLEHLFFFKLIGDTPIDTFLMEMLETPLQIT
Source text: (§1) HEK293T were used for luciferase assays. Cells were transfected using the PolyEthylenImine (PEI) method with human retinoid-X receptor (RXRγ) and human liver-X-receptors (LXRα or LXRβ) with LXRE-Luc; RXRγ and human farnesoid X receptor (FXR) with EcRE-Luc; RXRγ and human steroid and xenobiotic X receptor (SXR) with DR4-Luc; RXRγ and human peroxisome proliferator activated receptors (PPARα, or PPARγ) with PPRE-Luc; RXRγ and human retinoic acid receptor (RARα) with DR1-Luc; human AHR and human ARNT with a DRE-Luc; human vitamin D receptor (VDR) with VDRE-Luc. Cells were transfected with plasmids encoding human glucocorticoid receptor (GR), progesterone receptor (PR), or androgen receptor (AR) with MMTV-Luc; or estrogen receptors (ERα and ERβ) with an ERE-Luc. The day after transfection with the luciferase reporter gene construct, cells were seeded in 12-well plates (50,000 cells per well). […] Luciferase activity was measured using the luciferase assay reagent (Promega), according to the manufacturer’s instructions. Protein concentrations were measured using the Bradford method to normalize luciferase activities. For each condition, luciferase activity was calculated from the data of three independent wells.

[2] = test system: RXRγ, FXR, SXR, PPARα, PPARγ, RARα, AHR, VDR, GR, PR, AR, ERα, ERβ; experiment: Gene reporter luciferase assays on other nuclear receptors; type: cell-based, human; conditions: 2.5 µM DDA, 8 h, with or without cognate agonist
Source text: as §1, with “wells. […]” for “wells.”

[3] = test system: B16F10 cells; experiment: Cell cycle analysis by flow cytometry; type: cell-based, mouse; conditions: 5 µM DDA, 48 h
Method: Control and DDA-treated cells were fixed in 70% ethanol and then washed with PBS. Cells were incubated with 100 μg/ml RNase A for 30 min at 37 °C, permeabilized with 0.25% Tween-20, and stained with 50 μg/ml propidium iodide (PI) for 30 min at 37 °C. The DNA content of stained cells was analyzed by flow cytometry. The fraction of cells in sub-G1 phase was calculated using flowJo software (Ashland, Oregon). Data were obtained from 10^5 viable cells. […]

[4] = test system: B16F10 cells; experiment: Immunoblot densitometry (LC3-II); type: cell-based, mouse; conditions: 2.5 µM DDA, 24 h
Method: Immunoblotting was carried out as described previously. Proteins were separated on SDS-PAGE gels, electro-transferred onto polyvinylidene difluoride membranes and incubated overnight at 4 °C with the following antibodies: anti-Atg3, anti-Atg5 (D1G9), anti-Atg7 (D12B11), anti-Beclin (D40C5), anti-caspase-3 (Cell Signaling), anti-Bcl-2 (Millipore), anti-Bax (Millipore), anti-LC3 (Sigma-Aldrich), anti-LXRα (SantaCruz), anti-LXRβ (SantaCruz), anti-Nur77 (Active motif), anti-NOR1 (R&D systems), anti-PARP (Cell Signaling), anti-Vps34 (Cell Signaling), or anti-Actin (Millipore). For visualization, an ECL plus kit (Amersham Biosciences) was used, and chemiluminescence was measured by autoradiography (Supplementary Fig. 9). Specific bands were quantified with ImageQuant software.

## CC(C)CCC[C@@H](C)[C@H]1CC[C@H]2[C@@H]3C[C@@H](NCCc4cnc[nH]4)[C@@]4(O)C[C@@H](O)CC[C@]4(C)[C@H]3CC[C@]12C [DDA, Dendrogenin A]
[1]
  IC50: 76 ± 12 nM
[2]
  agonistic or antagonistic transcriptional activity on other NRs: did not show any agonistic or antagonistic transcriptional activity
[3]
  Cell cycle distribution: G0/G1: 54.50%
  Cell cycle distribution: G2/M: 9.83%
  Cell cycle distribution: S: 9.68%
  Cell cycle distribution: Sub G0/G1: 25.03%
[4]; B16F10 siATG7
  LC3-II protein, densitometry: 0.8
[4]; B16F10 siBECN1
  LC3-II protein, densitometry: 1.3
[4]; B16F10 siNOR1 + siNur77
  LC3-II protein, densitometry: 0.8
[4]; B16F10 siNOR1
  LC3-II protein, densitometry: 0.8
[4]; B16F10 siNur77
  LC3-II protein, densitometry: 1.1
[4]; B16F10 siSC
  LC3-II protein, densitometry: 2.5 and 1.8 and 2.3
[4]; B16F10 siVPS34
  LC3-II protein, densitometry: 1.9

Source: publication PMC5712521, “Dendrogenin A drives LXR to trigger lethal autophagy in cancers” (Nature Communications, 2017)
